Data: ChEMBL document CHEMBL1765018, “Inhibition of amyloid-β aggregation by coumarin analogs can be manipulated by functionalization of the aromatic center” (Bioorg Med Chem, 2011)
Activity calls are given as the source filed them. The calls are words filed in the database; no cut-off is given here.

Legend:
[1] = Inhibition of amyloid beta (1 to 40) monomer aggregation assessed as reduction in plateau fluorescence by thioflavin T based fluorometric assay; design: concentration or dose not given beside the values
[2] = Inhibition of amyloid beta (1 to 40) monomer aggregation assessed as lag time extension by thioflavin T based fluorometric assay relative to control
[3] = Inhibition of amyloid beta (1 to 40) monomer aggregation at 100 uM by thioflavin T based fluorometric assay
[4] = Inhibition of amyloid beta (1 to 40) monomer aggregation assessed as doubling in lag time by thioflavin T based fluorometric assay

Row | Compound | inhibition ([1]; concentration not given here) | fold change (FC) [2] | further results
1 | O=c1oc2ccccc2cc1-n1cc(-c2ccccc2)nn1 | 88% | 2.2 | 
2 | O=c1cc(Cl)c2ccccc2o1 |  |  | Activity [3]: inactive; inhibition [1]: inactive; Activity [2]: inactive
3 | O=C(O)CCCC(=O)NCc1cn(-c2cc3ccccc3oc2=O)nn1 |  |  | inhibition [1]: inactive; Activity [2]: inactive
4 | O=c1cc(-n2cc(-c3ccccc3)nn2)c2ccccc2o1 | 73% | 1.4 | 
5 | O=c1oc2ccccc2cc1-n1cc(-c2cccc3ccccc23)nn1 | 61% | 2 | Activity [4]: Active
6 | O=c1oc2ccccc2cc1-c1nn[nH]n1 | 87% | 1 | 
7 | N#Cc1cc2ccccc2oc1=O | 22% | 1 | 

Second part, led by results:

Row | inhibition ([1]; concentration not given here) | fold change (FC) [2] | Compound | further results
8 | 64% | 1.3 | CCN(CC)c1ccc2cc(-c3nc4ccccc4s3)c(=O)oc2c1 | 
9 |  | 1.8 | CCN(CC)c1ccc2c(C#N)c(C(C)=O)c(=O)oc2c1 | 
10 | 38% | 1.1 | CCN(CC)c1ccc2c(C#N)c(-c3nc4ccccc4s3)c(=O)oc2c1 | 
11 | 96% | 1 | CCN(CC)c1ccc2c(-c3nnn[nH]3)c(-c3nc4ccccc4s3)c(=O)oc2c1 | 
12 |  | 1.7 | CCN(CC)c1ccc2cc([N+](=O)[O-])c(=O)oc2c1 | 
13 |  | 2.1 | CCN(CC)c1ccc2c(C#N)c(N)c(=O)oc2c1 | 
